Reference: PubChem BioAssay (NCI)
Several values for one entry are separate records, joined by “and”; a condition that tells them apart may be missing. Equal values may be shown once.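 Five compound concentrations were applied to cells in 96-well plates for 48 hours; endpoints were derived by simple linear interpolation of the resulting dose-response curve. GI50 = concentration required for 50% inhibition of growth. The concentration for full growth arrest is given as TGI.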

Assays:
Experiment in all cases: DTP human tumour cell line panel, 48 h
SF-295 CNS = system: SF-295 CNS
M14 melanoma = system: M14 melanoma
XF 498 CNS = system: XF 498 CNS
DMS 114 small cell lung = system: DMS 114 small cell lung
CCRF-CEM leukemia = system: CCRF-CEM leukemia
SR leukemia = system: SR leukemia
DLD-1 colon = system: DLD-1 colon
M19-MEL melanoma = system: M19-MEL melanoma
BT-549 breast = system: BT-549 breast
DU-145 prostate = system: DU-145 prostate

O=c1[nH]c(=O)n(C2OC(CO)C(O)C2O)cc1OCc1ccccc1 (stereo unspecified)
TGI (SF-295 CNS): > 100 µM
TGI (M14 melanoma): > 100 µM
TGI (XF 498 CNS): > 100 µM
TGI (DMS 114 small cell lung): > 72.2 µM
TGI (CCRF-CEM leukemia): > 78.1 µM
TGI (SR leukemia): > 67.5 µM
TGI (DLD-1 colon): > 78 µM
TGI (M19-MEL melanoma): > 100 µM

CN/N=C(/CC(=O)c1sc(-n2nc(-c3ccccc3)cc2-c2ccccc2)nc1C)C(=O)Nc1ccc(Cl)c(Cl)c1
TGI (SF-295 CNS): > 100 µM
TGI (CCRF-CEM leukemia): > 100 µM
TGI (SR leukemia): > 100 µM
TGI (DLD-1 colon): > 100 µM
TGI (M19-MEL melanoma): > 100 µM

O=c1nc(-c2ccccc2)scc1-c1ccccc1
TGI (SF-295 CNS): > 100 µM
TGI (M14 melanoma): > 100 µM
TGI (XF 498 CNS): > 100 µM
TGI (DMS 114 small cell lung): > 100 µM
TGI (CCRF-CEM leukemia): > 100 µM
TGI (SR leukemia): > 100 µM
TGI (DLD-1 colon): > 100 µM
TGI (M19-MEL melanoma): > 100 µM

CCCCCCCCCCCCCC(=O)OC1C(CO)OC(=O)C1O (stereo unspecified)
TGI (SF-295 CNS): > 100 µM
TGI (M14 melanoma): > 100 µM
TGI (XF 498 CNS): > 100 µM
TGI (DMS 114 small cell lung): > 100 µM
TGI (CCRF-CEM leukemia): > 100 µM
TGI (DLD-1 colon): > 100 µM
TGI (M19-MEL melanoma): > 100 µM

CCCCCCCCCCNC(=S)OCCCC
TGI (SF-295 CNS): > 100 µM
TGI (M14 melanoma): 52.4 µM
TGI (XF 498 CNS): 39.8 µM
TGI (DMS 114 small cell lung): 45.8 µM
TGI (CCRF-CEM leukemia): 37.6 µM
TGI (SR leukemia): 38 µM
TGI (DLD-1 colon): 85.4 µM
TGI (M19-MEL melanoma): > 100 µM

O=C(CC(=O)c1cccc([N+](=O)[O-])c1)C(=O)Nc1nc([N+](=O)[O-])cs1
TGI (SF-295 CNS): > 100 µM
TGI (M14 melanoma): > 100 µM
TGI (DMS 114 small cell lung): > 100 µM
TGI (CCRF-CEM leukemia): > 100 µM
TGI (SR leukemia): > 100 µM
TGI (DLD-1 colon): > 100 µM
TGI (M19-MEL melanoma): > 100 µM

N#CC(C#N)=Cc1ccc(Oc2ccccc2)cc1
TGI (SF-295 CNS): 59.2 µM
TGI (M14 melanoma): 47.2 µM
TGI (XF 498 CNS): > 100 µM
TGI (DMS 114 small cell lung): 84 µM
TGI (CCRF-CEM leukemia): > 75.4 µM
TGI (SR leukemia): > 100 µM
TGI (DLD-1 colon): 20.6 µM
TGI (M19-MEL melanoma): > 64.8 µM

COc1cccc(N2C(=O)[C@H]3[C@H]4CC(C(C)(C)C)CC[C@H]4c4c([nH]c5ccccc45)[C@H]3C2=O)c1 (stereo partly specified)
TGI (SF-295 CNS): 29.2 µM
TGI (M14 melanoma): 30.7 µM
TGI (DMS 114 small cell lung): 38 µM
TGI (CCRF-CEM leukemia): 29.7 µM
TGI (DLD-1 colon): 65.1 µM
TGI (M19-MEL melanoma): 44.1 µM

CNC(=O)OCc1cc2ccncc2c2c1[nH]c1ccccc12
TGI (SF-295 CNS): > 100 µM
TGI (M14 melanoma): > 100 µM
TGI (XF 498 CNS): 97.9 µM
TGI (DMS 114 small cell lung): > 100 µM
TGI (CCRF-CEM leukemia): > 100 µM
TGI (SR leukemia): > 33.2 µM
TGI (DLD-1 colon): > 100 µM
TGI (M19-MEL melanoma): > 100 µM

CCC[CH2][Ge]([CH2]CCC)([CH2]CCC)[O]C(=O)C(OC(C)=O)c1ccccc1 (stereo unspecified)
GI50 (SF-295 CNS): 4.02 µM
TGI (SF-295 CNS): 23.3 µM
GI50 (M14 melanoma): 1.05 µM
TGI (M14 melanoma): 6.57 µM
GI50 (XF 498 CNS): 2.57 µM
TGI (XF 498 CNS): 15.4 µM
GI50 (CCRF-CEM leukemia): 0.229 µM
TGI (CCRF-CEM leukemia): > 26.1 µM
GI50 (DLD-1 colon): 1.76 µM
TGI (DLD-1 colon): 19 µM
GI50 (M19-MEL melanoma): 5.13 µM
TGI (M19-MEL melanoma): 20.3 µM

N#Cc1nc(Nc2ccc(Cl)cc2)sc1N
TGI (SF-295 CNS): 42 µM
TGI (M14 melanoma): > 85.7 µM
TGI (XF 498 CNS): > 100 µM
TGI (DMS 114 small cell lung): 73.7 µM
TGI (CCRF-CEM leukemia): > 100 µM
TGI (SR leukemia): 11.6 µM
TGI (DLD-1 colon): > 100 µM
TGI (M19-MEL melanoma): > 100 µM

CO[C@]12CCC(=O)N1C=Cc1c2[nH]c2ccccc12
TGI (SF-295 CNS): > 100 µM
TGI (M14 melanoma): > 100 µM
TGI (DMS 114 small cell lung): > 100 µM
TGI (CCRF-CEM leukemia): > 100 µM
TGI (SR leukemia): > 100 µM
TGI (DLD-1 colon): > 100 µM
TGI (M19-MEL melanoma): > 100 µM

COc1ccc2c([nH]c3cc(O)c(C)cc32)c1CC=C(C)C
GI50 (M14 melanoma): 1.62 µM
TGI (M14 melanoma): 9.29 µM
TGI (XF 498 CNS): > 25 µM
TGI (DMS 114 small cell lung): > 25 µM
GI50 (CCRF-CEM leukemia): 5.4 µM
TGI (CCRF-CEM leukemia): 17.5 µM
GI50 (SR leukemia): 7.19 µM
TGI (SR leukemia): > 25 µM
GI50 (DLD-1 colon): 9.22 µM
TGI (DLD-1 colon): > 25 µM
GI50 (M19-MEL melanoma): 12.2 µM
TGI (M19-MEL melanoma): > 25 µM

CCOC1=C2C(C)(CCC3[C@@]4(C)C=CC(=O)C(C)(C)C4CC(O)[C@@]23C)C(c2ccoc2)C1=O (stereo partly specified)
TGI (SF-295 CNS): 46.5 µM
TGI (M14 melanoma): > 100 µM
TGI (DMS 114 small cell lung): 36.8 µM
TGI (CCRF-CEM leukemia): 38.9 µM
TGI (DLD-1 colon): 29.7 µM
TGI (M19-MEL melanoma): 44.1 µM

CCCCC/C=C\C/C=C/CCCCCCCCNC(=O)Nc1ccc([N+](=O)[O-])cc1
GI50 (BT-549 breast): 28.2 µM
TGI (BT-549 breast): 65.3 µM
GI50 (SF-295 CNS): 4.96 µM
TGI (SF-295 CNS): > 100 µM
GI50 (M14 melanoma): 6.9 µM
TGI (M14 melanoma): 77.5 µM
GI50 (DU-145 prostate): 40.1 µM
TGI (DU-145 prostate): > 100 µM
GI50 (CCRF-CEM leukemia): 4.59 µM
TGI (CCRF-CEM leukemia): > 100 µM
GI50 (SR leukemia): 10.8 µM
TGI (SR leukemia): 37.6 µM

C/C=C/C=C\C(=O)C1c2cccc(O)c2C(=O)c2c(O)cc(C)cc21 (stereo unspecified)
TGI (SF-295 CNS): 2.25 µM
TGI (XF 498 CNS): 0.57 µM
TGI (DMS 114 small cell lung): 1.39 µM
TGI (CCRF-CEM leukemia): > 100 µM
TGI (DLD-1 colon): 3.67 µM
TGI (M19-MEL melanoma): 2.16 µM

CN1CCc2cc(O)c3cc2C1Cc1ccc(cc1)Oc1cc(ccc1O)CC1c2c(cc4c(c2O3)OCO4)CCN1C (stereo unspecified)
TGI (SF-295 CNS): 43.6 µM
TGI (M14 melanoma): 32.2 µM
TGI (XF 498 CNS): 29.2 µM
TGI (DMS 114 small cell lung): 39.4 µM
TGI (CCRF-CEM leukemia): > 100 µM
TGI (SR leukemia): > 100 µM
TGI (DLD-1 colon): > 100 µM

COc1cc(C(=O)Nc2cc(O)c(C/C=C(\C)CCC=C(C)C)c(O)c2)cc2c1O[C@]1(C)CC[C@@H](O)C(C)(C)[C@H]1C2
TGI (BT-549 breast): 5.23 µM
GI50 (SF-295 CNS): 0.00307 µM and < 0.012 µM
TGI (SF-295 CNS): 0.0135 µM and 0.0515 µM
GI50 (M14 melanoma): 0.0984 µM and 0.0812 µM
TGI (M14 melanoma): 4.76 µM and 1.91 µM
GI50 (DU-145 prostate): 1.88 µM and 0.331 µM
TGI (DU-145 prostate): 13.1 µM
GI50 (CCRF-CEM leukemia): 0.0438 µM and 0.0384 µM
TGI (CCRF-CEM leukemia): > 22.7 µM
GI50 (SR leukemia): 0.0382 µM and 0.0219 µM
TGI (SR leukemia): 7.2 µM and 5.93 µM
